Data published in BindingDB's records for doi:10.1021/jm00001a011 (University of Auckland, 1995).

Assay: Inhibitory concentration of the against pp60v-src tyrosine kinase obtained from v-src baculovirus-infected insect cells
For CN(C)C(=O)c1c(SSc2c(C(=O)N(C)C)c3ccccc3n2C)n(C)c2ccccc12 [1,3N,3N-trimethyl-2-(3-dimethylcarbamoyl-1-methyl-1H-2-indolyldisulfanyl)-1H-3-indolecarboxamide0.5 H2O], the IC50 was 0.5 µM. With O=C(O)CCc1c(SSc2[nH]c3ccccc3c2CCC(=O)O)[nH]c2ccccc12 [2,2 -Dithiobis(1H-indole-3-propanoic acid)] the IC50 was 5.1 µM. Cn1c(SSc2c(C(N)=O)c3ccccc3n2C)c(C(N)=O)c2ccccc21 [2-(3-carbamoyl-1-methyl-1H-2-indolyldisulfanyl)-1-methyl-1H-3-indolecarboxamide0.5 H2O] gave an IC50 of 0.8 µM. Molecule Cn1c(SSc2c(C(=O)Nc3ccccc3C(=O)O)c3ccccc3n2C)c(C(=O)Nc2ccccc2C(=O)O)c2ccccc21 [2-{2-[3-(2-carboxyphenylcarbamoyl)-1-methyl-1H-2-indolyldisulfanyl]-1-methyl-1H-3-indolylcarboxamido}benzoic acid2.0 H2O] has an IC50 of 3.5 µM. With Cn1c(SSc2c(C(=O)Nc3cccc(C(=O)O)c3)c3ccccc3n2C)c(C(=O)Nc2cccc(C(=O)O)c2)c2ccccc21 [3-{2-[3-(3-carboxyphenylcarbamoyl)-1-methyl-1H-2-indolyldisulfanyl]-1-methyl-1H-3-indolylcarboxamido}benzoic acid0.5 H2O] the IC50 was 5.3 µM. Cn1c(SSc2c(C(=O)NCC(O)CO)c3ccccc3n2C)c(C(=O)NCC(O)CO)c2ccccc21 (configuration not stated) [3N-(2,3-dihydroxypropyl)-2-[3-(2,3-dihydroxypropylcarbamoyl)-1-methyl-1H-2-indolyldisulfanyl]-1-methyl-1H-3-indolecarboxamide] showed an IC50 of 22.5 µM. In the case of Cn1c(SSc2c(C(=O)Nc3cccs3)c3ccccc3n2C)c(C(=O)Nc2cccs2)c2ccccc21 [3N-(2-thienyl)-1-methyl-2-[1-methyl-3-(2-thienylcarbamoyl)-1H-2-indolyldisulfanyl]-1H-3-indolecarboxamide], the IC50 is reported as > 50 µM. In the case of Cn1c(SSc2c(C(=O)Nc3cccnc3)c3ccccc3n2C)c(C(=O)Nc2cccnc2)c2ccccc21 [3N-(3-pyridyl)-1-methyl-2-[1-methyl-3-(3-pyridylcarbamoyl)-1H-2-indolyldisulfanyl]-1H-3-indolecarboxamide], the IC50 is reported as > 50 µM. In the case of Cn1c(SSc2c(C(=O)NCc3ccccc3)c3ccccc3n2C)c(C(=O)NCc2ccccc2)c2ccccc21 [3N-benzyl-2-(3-benzylcarbamoyl-1-methyl-1H-2-indolyldisulfanyl)-1-methyl-1H-3-indolecarboxamide], the IC50 is reported as 8 µM. O=C(NCc1ccccc1)c1c(SSc2[nH]c3ccccc3c2C(=O)NCc2ccccc2)[nH]c2ccccc12 [3N-benzyl-2-(3-benzylcarbamoyl-1H-2-indolyldisulfanyl)-1H-3-indolecarboxamide] showed an IC50 of 16.3 µM. For CCn1c(SSc2c(C(=O)Nc3ccccc3)c3ccccc3n2CC)c(C(=O)Nc2ccccc2)c2ccccc21 [3N-phenyl-1-ethyl-2-(1-ethyl-3-phenylcarbamoyl-1H-2-indolyldisulfanyl)-1H-3-indolecarboxamide], the IC50 was > 100 µM. For O=C(Nc1ccccc1)c1c(SSc2[nH]c3ccccc3c2C(=O)Nc2ccccc2)[nH]c2ccccc12 [3N-phenyl-2-(3-phenylcarbamoyl-1H-2-indolyldisulfanyl)-1H-3-indolecarboxamide], the IC50 was 7.6 µM. With Cn1c(SSc2c(C(=O)c3ccc(C(=O)O)cc3)c3ccccc3n2C)c(C(=O)c2ccc(C(=O)O)cc2)c2ccccc21 [4-{2-[3-(4-carboxybenzoyl)-1-methyl-1H-2-indolyldisulfanyl]-1-methyl-1H-3-indolylcarbonyl}benzoic acid2 H2O] the IC50 was 4 µM. With Cn1c(SSc2c(C(=O)Nc3ccc(C(=O)O)cc3)c3ccccc3n2C)c(C(=O)Nc2ccc(C(=O)O)cc2)c2ccccc21 [4-{2-[3-(4-carboxyphenylcarbamoyl)-1-methyl-1H-2-indolyldisulfanyl]-1-methyl-1H-3-indolylcarboxamido}benzoic acid H2O] the IC50 was 4.3 µM. Molecule Cn1c(SSc2c(C(=O)NCC(=O)O)c3ccccc3n2C)c(C(=O)NCC(=O)O)c2ccccc21 [({2-[3-(Carboxymethyl-carbamoyl)-1-methyl-1H-indol-2-yldisulfanyl]-1-methyl-1H-indole-3-carbonyl}-amino)-acetic acid] has an IC50 of 1 µM. For Cc1c(SSc2c(C)c3ccccc3n2C)n(C)c2ccccc12 [di(1,3-dimethyl-1H-2-indolyl) disulfide], the IC50 was > 50 µM. In the case of c1ccc(-c2c(SSc3[nH]c4ccccc4c3-c3ccccc3)[nH]c3ccccc23)cc1 [di(3-phenyl-1H-2-indolyl) disulfide], the IC50 is reported as > 100 µM. For COC(=O)c1ccccc1NC(=O)c1c(SSc2c(C(=O)Nc3ccccc3C(=O)OC)c3ccccc3n2C)n(C)c2ccccc12 [methyl 2-{1-methyl-2-[1-methyl-3-(2-methyloxycarbonylphenylcarbamoyl)-1H-2-indolyldisulfanyl]-1H-3-indolylcarboxamido}benzoate0.5 H2O], the IC50 was 15.6 µM. COC(=O)c1cccc(NC(=O)c2c(SSc3c(C(=O)Nc4cccc(C(=O)OC)c4)c4ccccc4n3C)n(C)c3ccccc23)c1 [methyl 3-{1-methyl-2-[1-methyl-3-(3-methyloxycarbonylphenylcarbamoyl)-1H-2-indolyldisulfanyl]-1H-3-indolylcarboxamido}benzoate] gave an IC50 of 5.4 µM. Molecule COC(=O)c1ccc(C(=O)c2c(SSc3c(C(=O)c4ccc(C(=O)OC)cc4)c4ccccc4n3C)n(C)c3ccccc23)cc1 [methyl 4-{1-methyl-2-[1-methyl-3-(4-methyloxycarbonylbenzoyl)-1H-2-indolyldisulfanyl]-1H-3-indolylcarbonyl}benzoate] has an IC50 of 7.1 µM. Molecule COC(=O)c1ccc(CNC(=O)c2c(SSc3c(C(=O)NCc4ccc(C(=O)OC)cc4)c4ccccc4n3C)n(C)c3ccccc23)cc1 [methyl 4-{1-methyl-2-[1-methyl-3-(4-methyloxycarbonylbenzylcarbamoyl)-1H-2-indolyldisulfanyl]-1H-3-indolylcarboxamidomethyl}benzoate0.5 H2O] has an IC50 of 2.5 µM. COC(=O)c1ccc(NC(=O)c2c(SSc3c(C(=O)Nc4ccc(C(=O)OC)cc4)c4ccccc4n3C)n(C)c3ccccc23)cc1 [methyl 4-{1-methyl-2-[1-methyl-3-(4-methyloxycarbonylphenylcarbamoyl)-1H-2-indolyldisulfanyl]-1H-3-indolylcarboxamido}benzoate H2O] gave an IC50 of 4.2 µM.
